Data taken from patent US20170349550A1, “ACTIVE COMPOUND COMBINATIONS” (BAYER CROPSCIENCE AKTIENGESELLSCHAFT, priority 2014, published 2017).
Several values for one entry are separate records, joined by “and”; a condition that tells them apart may be missing. Equal values may be shown once. Read-outs that look alike come from different tables or passages of the source.

Tests used:
Alternaria solani = assay: in vivo preventive test on Alternaria test (tomatoes); conditions: 3 days after inoculation
Description: After the spray coating has dried on, the plants are inoculated with an aqueous spore suspension of Alternaria solani.
The test is evaluated 3 days after the inoculation.

Phakopsora pachyrhizi = assay: in vivo preventive test on Phakopsora test (soybeans); conditions: 7 days after inoculation
Description: After the spray coating has dried on, the plants are inoculated with an aqueous spore suspension of the causal agent of soybean rust (Phakopsora pachyrhizi) and stay for 24 h without light in an incubation cabinet at approximately 24° C. and a relative atmospheric humidity of 95%. The plants remain in the incubation cabinet at approximately 24° C. and a relative atmospheric humidity of approximately 80% and a day/night interval of 12 h.
(§1) The test is evaluated 7 days after the inoculation.

Sphaerotheca fuliginea = assay: in vivo preventive test on Sphaerotheca test (cucumbers); conditions: 7 days after inoculation
Description: After the spray coating has dried on, the plants are inoculated with an aqueous spore suspension of Sphaerotheca fuliginea. The plants are then placed in a greenhouse at approximately 23° C. and a relative atmospheric humidity of approximately 70%.
as §1

Venturia inaequalis = assay: in vivo preventive test on Venturia test (apples); conditions: 10 days after inoculation
Description: The plants are then placed in a greenhouse at approximately 21° C. and a relative atmospheric humidity of approximately 90%.
The test is evaluated 10 days after the inoculation.

Botrytis cinerea = assay: in vivo preventive test on Botrytis test (beans); conditions: size of lesions 2 days after inoculation
Description: Solvent: 24.5 parts by weight of acetone • 24.5 parts by weight of dimethylacetamide Emulsifier: 1 part by weight of alkylaryl polyglycol ether
After the spray coating has dried on, 2 small pieces of agar covered with growth of Botrytis cinerea are placed on each leaf. The inoculated plants are placed in a darkened chamber at 20° C. and a relative atmospheric humidity of 100%.
2 days after the inoculation, the size of the lesions on the leaves is evaluated.

Fusarium graminearum = format: in vivo; conditions: barley, 5 days after inoculation
Leptosphaeria nodorum = assay: in vivo preventive Leptosphaeria nodorum test (wheat); conditions: 8 days after inoculation
Description: After the spray coating has been dried, the plants are sprayed with a spore suspension of Leptosphaeria nodorum. […] The plants are placed in the greenhouse at a temperature of approximately 25° C. and a relative atmospheric humidity of approximately 80%.
(§2) The test is evaluated 8 days after the inoculation.

Puccinia triticina = assay: in vivo preventive Puccinia triticina test (wheat); conditions: 8 days after inoculation
Description: After the spray coating has been dried, the plants are sprayed with a spore suspension of Puccinia triticina.
as §2

Uromyces appendiculatus = assay: in vivo preventive test on Uromyces test (beans); conditions: 10 days after inoculation
Description: The plants are then placed in a greenhouse at approximately 21° C. and a relative atmospheric humidity of approximately 90%. The test is evaluated 10 days after the inoculation.

[1] = tested on: Blumeria graminis f.sp. hordei; assay: in vivo preventive Blumeria test (barley); conditions: 7 days after inoculation
Septoria tritici = assay: in vivo preventive Septoria tritici test (wheat); conditions: 21 days after inoculation
Description: After the spray coating has been dried, the plants are sprayed with a spore suspension of Septoria tritici. […] The plants are placed in the greenhouse at a temperature of approximately 15° C. and a relative atmospheric humidity of approximately 80%.
The test is evaluated 21 days after the inoculation.

Pyrenophora teres = assay: in vivo preventive Pyrenophora teres test (barley); conditions: 8 days after inoculation
Description: After the spray coating has been dried, the plants are sprayed with a spore suspension of Pyrenophora teres.
as §2

[2] = tested on: Fusarium nivale (var. majus); assay: in vivo preventive Fusarium nivale (var. majus) test (wheat); conditions: 5 days after inoculation
Description: After the spray coating has been dried, the plants are slightly injured by using a sandblast and afterwards they are sprayed with a conidia suspension of Fusarium nivale (var. majus). The plants are placed in the greenhouse under a translucent incubation cabinet at a temperature of approximately 10° C. and a relative atmospheric humidity of approximately 100%.
The test is evaluated 5 days after the inoculation.

Molecule | Efficacy in % found (Alternaria solani; 0.5 ppm a.i.) | Efficacy in % found (Alternaria solani; 1 ppm a.i.) [%] | Efficacy in % found (Phakopsora pachyrhizi; 0.25 ppm a.i.) | Efficacy in % found (Fusarium graminearum; 50 ppm a.i.) [%] | Efficacy in % found (Leptosphaeria nodorum; 50 ppm a.i.) | Efficacy in % found (Leptosphaeria nodorum; 100 ppm a.i.) [%] | Efficacy in % found (Phakopsora pachyrhizi; 0.5 ppm a.i.) | Efficacy in % found ([1]; 25 ppm a.i.) | Efficacy in % found (Leptosphaeria nodorum; 25 ppm a.i.) [%] | Efficacy in % found (Puccinia triticina; 25 ppm a.i.) [%] | Efficacy in % found (Puccinia triticina; 50 ppm a.i.) | Efficacy in % found (Septoria tritici; 50 ppm a.i.) | Efficacy in % found (Septoria tritici; 25 ppm a.i.) [%] | further results
OC(Cn1cncn1)(c1ccc(F)cc1)c1ccccc1F (centres unmarked) [1.22, flutriafol] | 0% | 0 | 0% | – | – | – | – | – | – | – | – | – | – | Efficacy in % found (Alternaria solani; 0.25 ppm a.i.): 0%; Efficacy in % found (Phakopsora pachyrhizi; 1 ppm a.i.): 0%; Efficacy in % found (Sphaerotheca fuliginea; 1 ppm a.i.): 24%; Efficacy in % found (Venturia inaequalis; 0.25 ppm a.i.): 0%; Efficacy in % found (Venturia inaequalis; 0.5 ppm a.i.): 0%; Efficacy in % found (Venturia inaequalis; 1 ppm a.i.): 8%; Efficacy in % found (Botrytis cinerea; 0.25 ppm a.i.): 0%; Efficacy in % found (Botrytis cinerea; 0.5 ppm a.i.): 15%; Efficacy in % found (Botrytis cinerea; 1 ppm a.i.): 30%
CCCC1CC(C)(C)c2cccc(NC(=O)c3cccnc3C(F)F)c21 (centres unmarked) [(I-5), 2-(difluoromethyl)-N-(1,1-dimethyl-3-propyl-2,3-dihydro-1H-inden-4-yl)nicotinamide] | – | – | 43% and 60% | 29 | 38% | 38 | 78% and 89% | – | – | – | – | – | – | Efficacy in % found (Fusarium graminearum; 25 ppm a.i.): 0%; Efficacy in % found (Puccinia triticina; 12.5 ppm a.i.): 30%; Efficacy in % found (Uromyces appendiculatus; 0.5 ppm a.i.): 95%
OC(Cc1ccccc1Cl)(Cn1nc[nH]c1=S)C1(Cl)CC1 (centres unmarked) [1.41, prothioconazole] | 15% and 8% | 15 | 0% | – | – | – | 0% | – | – | – | – | – | – | Efficacy in % found (Uromyces appendiculatus; 0.25 ppm a.i.): 0%; Efficacy in % found (Uromyces appendiculatus; 1 ppm a.i.): 0%; Efficacy in % found (Venturia inaequalis; 1 ppm a.i.): 0%
CCC1CC(C)(C)c2cccc(NC(=O)c3cccnc3C(F)F)c21 (centres unmarked) [(I-3), 2-(difluoromethyl)-N-(3-ethyl-1,1-dimethyl-2,3-dihydro-1H-inden-4-yl)nicotinamide] | 23% | – | – | – | 14% | 43 | – | 0% | 0 | – | – | – | – | Efficacy in % found (Fusarium graminearum; 25 ppm a.i.): 0%; Efficacy in % found (Septoria tritici; 100 ppm a.i.): 83%; Efficacy in % found (Sphaerotheca fuliginea; 0.5 ppm a.i.): 0%; Efficacy in % found (Uromyces appendiculatus; 0.25 ppm a.i.): 90%; Efficacy in % found (Venturia inaequalis; 1 ppm a.i.): 11%
cyproconazole [1.5] | – | – | – | – | 0% | – | – | – | – | 70 | 80% | 50% | – | Efficacy in % found (Leptosphaeria nodorum; 12.5 ppm a.i.): 0%; Efficacy in % found (Pyrenophora teres; 25 ppm a.i.): 25% and 22%; Efficacy in % found (Pyrenophora teres; 50 ppm a.i.): 25%; Efficacy in % found (Pyrenophora teres; 100 ppm a.i.): 0%; Efficacy in % found (Septoria tritici; 100 ppm a.i.): 17%
propiconazole [1.40] | – | – | – | – | – | 25 | – | 43% and 80% | – | 25 | 0% and 10% | 0% | 0 | Efficacy in % found (Pyrenophora teres; 25 ppm a.i.): 22%; Efficacy in % found (Pyrenophora teres; 50 ppm a.i.): 13% and 25%; Efficacy in % found (Pyrenophora teres; 100 ppm a.i.): 25%; Efficacy in % found (Septoria tritici; 100 ppm a.i.): 38%
difenoconazole [1.7] | – | – | – | 0 | 29% and 43% | 13 | – | – | 29 | 20 | 50% | 0% | – | Efficacy in % found ([1]; 50 ppm a.i.): 60% and 71% and 40%; Efficacy in % found (Fusarium graminearum; 100 ppm a.i.): 0%; Efficacy in % found ([2]; 12.5 ppm a.i.): 0%; Efficacy in % found (Puccinia triticina; 12.5 ppm a.i.): 0%; Efficacy in % found (Pyrenophora teres; 12.5 ppm a.i.): 22%; Efficacy in % found (Pyrenophora teres; 50 ppm a.i.): 13%
Fc1ccc([C@]2(Cn3cncn3)O[C@H]2c2ccccc2Cl)cc1 (racemic) [1.12, epoxiconazole] | – | – | – | 0 | 57% | – | – | 30% | 43 | 40 | – | 63% and 33% | 0 | Efficacy in % found ([1]; 12.5 ppm a.i.): 14%; Efficacy in % found ([2]; 12.5 ppm a.i.): 13%
CC[C@@H]1CC(C)(C)c2cccc(NC(=O)c3cccnc3C(F)F)c21 [(I-4), 2-(difluoromethyl)-N-[(3R)-3-ethyl-1,1-dimethyl-2,3-dihydro-1H-inden-4-yl]nicotinamide] | – | 40 | 33% and 65% | – | 0% | – | 75% | – | – | – | – | 75% | 75 | Efficacy in % found ([1]; 50 ppm a.i.): 0%; Efficacy in % found ([2]; 12.5 ppm a.i.): 13%; Efficacy in % found ([2]; 25 ppm a.i.): 13%; Efficacy in % found (Venturia inaequalis; 0.5 ppm a.i.): 16%
CCC[C@@H]1CC(C)(C)c2cccc(NC(=O)c3cccnc3C(F)F)c21 [(I-6), 2-(difluoromethyl)-N-[(3R)-1,1-dimethyl-3-propyl-2,3-dihydro-1H-inden-4-yl]nicotinamide] | – | 27 | 60% and 75% | – | 14% | – | – | 40% | – | – | – | 75% | – | Efficacy in % found (Alternaria solani; 0.25 ppm a.i.): 16%
CC(C)(C)C(O)(CCc1ccc(Cl)cc1)Cn1cncn1 (centres unmarked) [1.47, tebuconazole] | 8% and 0% | – | 0% | – | – | – | 0% | – | – | – | – | – | – | Efficacy in % found (Alternaria solani; 0.25 ppm a.i.): 0%; Efficacy in % found (Uromyces appendiculatus; 0.25 ppm a.i.): 0%; Efficacy in % found (Uromyces appendiculatus; 0.5 ppm a.i.): 0%; Efficacy in % found (Uromyces appendiculatus; 1 ppm a.i.): 0%
CC1(C)CCC(Cc2ccc(Cl)cc2)C1(O)Cn1cncn1 (centres unmarked) [1.30, metconazole] | – | – | – | 14 | – | – | – | 93% and 80% | 0 | 20 | 10% | 33% | 17 | Efficacy in % found ([1]; 50 ppm a.i.): 93%; Efficacy in % found (Puccinia triticina; 12.5 ppm a.i.): 0%
